Experimental data as given in patent US20260000736A1, “PURIFIED LACTOFERRIN COMPOSITIONS AND METHODS OF USE” (Lactea Therapeutics LLC, priority 2023, published 2026).
Where a SMILES comes first, the peptide text is derived from it. Bridges are numbered along the chain shown (N, C = ends). [ ]: non-standard residue; d: D form. The star is where a group is joined. Ileψ(thiazoline)Cys = CC[C@H](C)[C@H](N)C1=N[C@H](C(=O)*)CS1; dOrn = NCCC[C@@H](N)C(=O)O

Columns and labels:
[1] = test system: SARS-CoV-2; experiment: SARS-CoV-2 Cytopathic Effect (CPE) reduction assay in Vero E6 cells; format: cell-based; conditions: Severe acute respiratory syndrome coronavirus 2, Vero C1008, 72 h
[2] = test system: pigs with dermatome wounds; experiment: Pig dermatome wound healing model; format: in vivo; conditions: dermatome wounds 40×40 mm at a depth of 0.76 mm, topical treatment
Experimental: In a first assessment in a pig model setting, using a dermatome, six wounds were made on each pig with three on the left side and three on the right side of each pig covering a surface area of 40×40 mm at a depth of 0.76 mm. […] For each pig, the wounds on the left of the animal were treated while the wounds on the right wide were left as untreated controls. […] Standard of care was advised on by veterinarians with experience in dealing with wound management in a farm setting.

SMILES	EC50 [1]	wound healing [2]
CCC(CC)COC(=O)[C@H](C)N[P@](=O)(OC[C@H]1O[C@@](C#N)(c2ccc3c(N)ncnn23)[C@H](O)[C@@H]1O)Oc1ccccc1 [Remdesivir, reference compound]	4.5 µM	
CC[C@H](C)[C@H](N)C1=N[C@H](C(=O)N[C@@H](CC(C)C)C(=O)N[C@H](CCC(=O)O)C(=O)N[C@H](C(=O)N[C@H]2CCCCNC(=O)[C@H](CC(N)=O)NC(=O)[C@@H](CC(=O)O)NC(=O)[C@H](Cc3cnc[nH]3)NC(=O)[C@@H](Cc3ccccc3)NC(=O)[C@H]([C@@H](C)CC)NC(=O)[C@@H](CCCN)NC2=O)[C@@H](C)CC)CS1 [bacitracin, reference compound] ({Ileψ(thiazoline)Cys}-L[dE]IK[dOrn]I[dF]H[dD]N; lactam 4-C)		treated wounds were still open after one week
